Measurements taken from US7557121B2, “Tetrahydronaphthyridine derivatives” (Pfizer Inc, priority 2004, dated 2009).

Legend:
[1] = target: T1, human histamine H3 receptor (Homo sapiens, UniProt Q9Y5N1); assay: H3 cell based functional assay (cAMP through β-lactamase reporter gene activity); conditions: functional Ki from antagonist IC50 by Cheng-Prussoff; HEK-293 cells, 10 μM forskolin, 1 nM imetit
T1 construct: expressed in transfected cells; host or cells: HEK-293 cells expressing a CRE β-lactamase reporter gene
T1 sequence (Q9Y5N1 whole entry): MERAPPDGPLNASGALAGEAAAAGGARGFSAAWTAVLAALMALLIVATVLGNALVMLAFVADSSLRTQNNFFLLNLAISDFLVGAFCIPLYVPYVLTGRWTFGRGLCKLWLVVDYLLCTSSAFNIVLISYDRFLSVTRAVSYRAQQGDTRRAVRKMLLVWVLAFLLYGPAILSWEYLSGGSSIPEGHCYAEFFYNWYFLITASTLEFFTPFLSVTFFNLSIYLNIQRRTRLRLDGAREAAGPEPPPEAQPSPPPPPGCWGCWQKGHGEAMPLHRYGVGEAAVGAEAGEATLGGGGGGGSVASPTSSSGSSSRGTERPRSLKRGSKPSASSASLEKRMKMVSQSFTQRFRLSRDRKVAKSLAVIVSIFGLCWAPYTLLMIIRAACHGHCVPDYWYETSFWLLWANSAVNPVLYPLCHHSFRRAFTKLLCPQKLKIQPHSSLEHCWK
Description: H3 Cell Based Functional Assay Compounds were evaluated using a cell based functional assay measuring cAMP through β-lactamase reporter gene activity. A stable cell line was generated from HEK-293 cells expressing a CRE β-lactamase reporter gene and transfected with human histamine H3 receptor cDNA. Cells were seeded at a density of 500,000 cells/ml, and grown overnight in MEM (Invitrogen) supplemented with 1% dialysed FBS (Sigma), 2 mM glutamine (Sigma), 1 mM sodium pyruvate (Sigma), 0.1 mM non essential amino acids (Invitrogen) and 25 mM HEPES (Sigma) in poly D lysine coated 384 well plates (BD Biosciences).

[2] = target: T2, hERG product (Homo sapiens, UniProt Q12809); assay: Radioligand binding assay for [3H]-dofetilide binding to the hERG product expressed in HEK-293S cells; conditions: displacement of 3H-UK068798 (~5 nM) from membranes of hERG expressing HEK-293S cells; Cheng-Prusoff
T2 construct: host or cells: HEK-293S cells (membranes)
T2 sequence (Q12809 whole entry): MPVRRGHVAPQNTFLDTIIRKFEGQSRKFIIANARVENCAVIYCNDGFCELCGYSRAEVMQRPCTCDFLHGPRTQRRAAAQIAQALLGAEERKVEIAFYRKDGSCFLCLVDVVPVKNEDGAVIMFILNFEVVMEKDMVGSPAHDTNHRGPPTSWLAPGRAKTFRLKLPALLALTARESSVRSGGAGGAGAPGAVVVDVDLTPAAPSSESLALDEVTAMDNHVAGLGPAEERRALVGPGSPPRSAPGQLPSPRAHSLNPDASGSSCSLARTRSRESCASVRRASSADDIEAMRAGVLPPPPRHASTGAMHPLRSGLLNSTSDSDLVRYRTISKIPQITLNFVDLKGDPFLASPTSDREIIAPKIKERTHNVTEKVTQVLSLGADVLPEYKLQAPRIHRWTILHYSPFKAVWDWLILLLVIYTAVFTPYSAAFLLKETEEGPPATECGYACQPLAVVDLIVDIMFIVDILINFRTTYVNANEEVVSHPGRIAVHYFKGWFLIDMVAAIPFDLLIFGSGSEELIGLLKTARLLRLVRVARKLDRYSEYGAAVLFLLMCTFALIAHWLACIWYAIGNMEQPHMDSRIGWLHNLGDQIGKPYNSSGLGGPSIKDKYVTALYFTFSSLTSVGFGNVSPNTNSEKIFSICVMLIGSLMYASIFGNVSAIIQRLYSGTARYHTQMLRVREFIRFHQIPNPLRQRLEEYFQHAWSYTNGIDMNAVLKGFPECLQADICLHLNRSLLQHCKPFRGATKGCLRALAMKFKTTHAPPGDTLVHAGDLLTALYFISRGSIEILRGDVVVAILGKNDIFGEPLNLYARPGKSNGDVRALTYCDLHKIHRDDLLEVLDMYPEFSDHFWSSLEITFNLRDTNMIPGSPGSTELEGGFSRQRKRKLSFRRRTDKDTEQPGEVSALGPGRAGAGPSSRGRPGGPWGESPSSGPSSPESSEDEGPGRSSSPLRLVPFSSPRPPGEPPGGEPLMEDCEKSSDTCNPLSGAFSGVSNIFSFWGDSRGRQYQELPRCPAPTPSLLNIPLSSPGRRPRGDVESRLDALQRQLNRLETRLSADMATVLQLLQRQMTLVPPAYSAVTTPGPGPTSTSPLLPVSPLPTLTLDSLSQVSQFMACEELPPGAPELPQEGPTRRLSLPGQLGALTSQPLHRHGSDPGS
Description: (§1) A Radioligand Binding Assay for [^3H]-dofetilide Binding to the hERG Product Expressed in HEK-293S Cells
(§2) hERG expressing HEK-293S cells were obtained from University of Wisconsin and membranes prepared according to standard protocols. Membranes were diluted in assay buffer, consisting of Tris-HCl 50 mM; KCl 10 mM; MgCl2 1 mM pH 7.4 with NaOH, and were pre-coupled with 120 mg/ml YSi polylysine Scintillation Proximity Beads in a ratio of 16 ug protein to 1 mg bead for 2 hours at 4° C. The coupled beads were separated from uncoupled protein by centrifugation and re-suspended in cold assay buffer to give a working solution of 6.25 mgs/ml. 20 μl of test compound was added to a 96-well microtiteplate at a final assay top concentration of 10 μM in serial ½ log dilutions (1 in 3.162) to generate at 10 point IC50 curve. 20 μl of ^3H-UK068798 (Dofetilide, Amersham; specific activity 78-83 Ci/mmole) was placed in each well of a 96 well plate to a final assay concentration of ˜5 nM. To this, 160 μl of bead/membrane mixture was added. The assay plates were shaken for 1 hour at room temperature and incubated for a further 30 minutes at room temperature for beads to settle. The plates were then read on a Packard TopCount NXT. The percentage displacement of ^3H-UK068798 was calculated using 0% as defined by 1% DMSO vehicle in well and 100% as defined by 10 μM UK-068798. Dose response curves were fitted using a four parameter logistical fit and the Ki value was derived using the Cheng-Prusoff equation (Cheng, Y. C. & Prusoff, W. H. (1973). Biochem. Pharmacol., 22, 3099-3108. )

[3] = target: T3, hERG (Homo sapiens, UniProt Q12809); assay: as above; conditions: human, membranes of HEK-293S cells expressing hERG, pH 7.4, probe [3H]-dofetilide (3H-UK068798); displacement of 3H-UK068798 (~5 nM) from membranes of hERG expressing HEK-293S cells; Cheng-Prusoff
T3 construct: host or cells: HEK-293S cells (membranes)
T3 sequence (Q12809 whole entry): as above
Description: as §1, §2

Compound | Ki [1] | Ki [2] | Ki at 1.5 h [3]
NC(=O)c1ccc(N2CCc3nc(OCCCN4CCCCC4)ccc3C2)nc1 [Example 48, 6-[2-(3-piperidin-1-ylpropoxy)-7,8-dihydro-1,6-naphthyridin-6(5H)-yl]nicotinamide] | 0.0145 µM | – | 100 µM
Cc1ccc(N2CCc3nc(OCCCN4CCC[C@H]4C)ccc3C2)cn1 [Example 24, 6-(6-methylpyridin-3-yl)-2-{3-[(2R)-2-methylpyrrolidin-1-yl]propoxy}-5,6,7,8-tetrahydro-1,6-naphthyridine] | 0.00821 µM | 35.6 µM | –
c1cnnc(N2CCc3nc(OCCCN4CCCCC4)ccc3C2)c1 [Example 29, 2-(3-piperidin-1-ylpropoxy)-6-pyridazin-3-yl-5,6,7,8-tetrahydro-1,6-naphthyridine] | 0.0198 µM | 64.4 µM | –
CNC(=O)c1ccc(N2CCc3nc(OCCCN4CCCC4)ccc3C2)cn1 [Example 65, N-Methyl-5-[2-(3-pyrrolidin-1-ylpropoxy)-7,8-dihydro-1,6-naphthyridin-6(5H)-yl]pyridine-2-carboxamide] | 0.0163 µM | 46.1 µM | –
C[C@@H]1CCCN1CCCOc1ccc2c(n1)CCN(c1cnccn1)C2 [Example 23, 2-{3-[(2R)-2-methylpyrrolidin-1-yl]propoxy}-6-pyrazin-2-yl-5,6,7,8-tetrahydro-1,6-naphthyridine] | 0.0103 µM | 11.5 µM | –
CNC(=O)c1ccc(N2CCc3nc(OCCCN4CCC[C@H]4C)ccc3C2)cn1 [Example 64, N-Methyl-5-[2-{3-[(2R)-2-methylpyrrolidin-1-yl]propoxy}-7,8-dihydro-1,6-naphthyridin-6(5H)-yl]pyridine-2-carboxamide] | 0.00467 µM | 55.5 µM | –
C[C@H]1CCCN1CCCOc1ccc2c(n1)CCN(c1cnccn1)C2 [Example 26, 2-{3-[(2S)-2-methylpyrrolidin-1-yl]propoxy}-6-pyrazin-2-yl-5,6,7,8-tetrahydro-1,6-naphthyridine] | 0.00524 µM | 9.88 µM | –
CNC(=O)c1ccc(N2CCc3nc(OCCCN4CCCC4)ccc3C2)nc1 [Example 44, N-methyl-6-[2-(3-pyrrolidin-1-ylpropoxy)-7,8-dihydro-1,6-naphthyridin-6(5H)-yl]nicotinamide] | 0.0181 µM | 85.8 µM | –
C[C@H]1CCCN1CCCOc1ccc2c(n1)CCN(c1cccnn1)C2 [Example 25, 2-{3-[(2S)-2-methylpyrrolidin-1-yl]propoxy}-6-pyridazin-3-yl-5,6,7,8-tetrahydro-1,6-naphthyridine] | 0.00556 µM | 55.9 µM | –
C[C@@H]1CCCN1CCCOc1ccc2c(n1)CCN(c1cccnn1)C2 [Example 22, 2-{3-[(2R)-2-methylpyrrolidin-1-yl]propoxy}-6-pyridazin-3-yl-5,6,7,8-tetrahydro-1,6-naphthyridine] | 0.00916 µM | 51.8 µM | –

Second part, led by results:

Ki [1] | Compound | Ki [2] | Ki at 1.5 h [3]
0.00486 µM | Cc1ccc(N2CCc3nc(OC4CCN(C(C)C)CC4)ccc3C2)cn1 [Example 72, 2-[(1-isoproplpiperidin-4-yl)oxy]-6-(6-methylpyridin-3-yl)-5,6,7,8-tetrahydro-1,6-naphthyridine] | 13.7 µM | –
0.0137 µM | CC(C)N1CCC(Oc2ccc3c(n2)CCN(c2cnccn2)C3)CC1 [Example 71, 2-[(1-Isopropylpiperidin-4-yl)oxy]-6-pyrazin-2-yl-5,6,7,8-tetrahydro-1,6-naphthyridine] | 22.9 µM | –
0.00632 µM | CNC(=O)c1ccc(N2CCc3nc(OC4CCN(C(C)C)CC4)ccc3C2)nc1 [Example 70, 6-[2-[(1-Isopropylpiperidin4-yl)oxy]-7,8-dihydro-1,6-naphthyridin-6(5H)-yl]-N-methylnicotinamide] | 94.4 µM | –
0.00828 µM | CNC(=O)c1ccc(N2CCc3nc(OCCCN4CCC[C@H]4C)ccc3C2)nc1 [Example 68, N-Methyl-6-[2-{3-[(2R)-2-methylpyrrolidin-1-yl]propoxy}-7,8-dihydro-1,6-naphthyridin-6(5H)-yl]nicotinamide] | – | 100 µM
0.0197 µM | CN(C)C(=O)c1ccc(N2CCc3nc(OCCCN4CCCC4)ccc3C2)cn1 [Example 67, N,N-Dimethyl-5-[2-(3-pyrrolidin-1-ylpropoxy)-7,8-dihydro-1,6-naphthyridin-6(5H)-yl]pyridine-2-carboxamide] | – | 100 µM
